Assays:
ARL4C mRNA [1] = assay: Screening of ARL4C ASO knockdown efficiency by real-time PCR in A549 cells; format: cell-based, human; conditions: screening of 38 types of ARL4C ASOs
Procedure: (§1) HLE cells, HCT116 cells, and A549 cells were transfected with 25 to 50 nM ASO and 10 to 20 nM siRNA using Lipofectamine 3000 (Invitrogen, Carlsbad, CA, USA) or RNAiMAX (Invitrogen). Transfected cells were used in the experiments 36 to 48 hours after the end of the transfection.
(§2) Cell migration assays and quantitative real-time PCR analyses were performed according to the methods reported by Fujii S et al. (Oncogene 2015; 34: 4834-44).
First, base sequences of 15-nucleotide ARL4C were selected based on the structure of ARL4C mRNA. From thousands of ARL4C ASO candidates, those that may cause hepatotoxicity were excluded, and 38 types of ARL4C ASOs (those other than ASO-1312, ASO-1450 and ASO-3223 among the ASOs in Table 1) were selected, by high-dimensional structure prediction of ARL4C mRNA. The ASOs used in this test were those in which all of the phosphodiester bonds were substituted with phosphorothioate bonds. Knockdown efficiencies of ARL4C ASOs in A549 cells (lung adenocarcinoma cells) were investigated by screening experiments using real-time PCR. It has been confirmed that the protein abundance of ARL4C in A549 cells is reduced by treatment with ARL4C siRNA. The ARL4C mRNA amounts in A549 cells treated with 38 types of ARL4C ASOs were measured, and the results are shown in (a) of FIG. 3.

ARL4C mRNA [2] = assay: ARL4C mRNA amount by real-time PCR in HCT116 cells; format: cell-based, human; conditions: HCT116 cells transfected at 25 nM
Procedure: as §1, §2
HLE cells and HCT116 cells were transfected with the above-described seven types of ARL4C ASOs and the control ASO at 25 nM, and the ARL4C mRNA amounts were measured by real-time PCR; the results thereof are shown in (a) of FIG. 4. […] In order to optimize the effect of these three types of ARL4C ASOs, four bases were added to each of these three types of ARL4C ASOs, whereby ASO-1312, ASO-1450, and ASO-3223 each of which consisted of 19 bases were produced. With these six types of ARL4C ASOs (ASO-1316, ASO-1312, ASO-1454, ASO-1450, ASO-3225, and ASO-3223), the knockdown effect on ARL4C was further studied.

S2-CP8/Luc cells = assay: Xenograft orthotopic transplantation model using pancreatic cancer cells; format: in vivo, mouse; conditions: twice a week from 3 days after transplantation, 28 days after transplantation
Procedure: Assay based on the xenograft orthotopic transplantation model using pancreatic cancer cells was performed by arranging the method described in the literature (Kim M P. et. al., Nat Protoc 2009; 4: 1670-80). Specifically, S2-CP8/Luc cells (5×10^5 cells) were suspended in 100 μl of Hanks' Balanced Salt Solution (HBSS) containing 50% matrigel, and were orthotopically transplanted in the central part of the pancreas using a 27 G needle. Three days after transplantation, the mice were divided into two groups, a control ASO-administered group (n=6) and an ARL4C ASO-administered group (n=7). […] Tumors were quantified once a week using the IVIS imaging system (Xenogen Corp.). In the in-vivo imaging, 100 μl of VivoGlo luciferin (30 mg/ml) was intraperitoneally administered, and bioluminescence images were recorded eight minutes after the administration. The quantification of the tumors was carried out in the following manner: a region of interest (ROI) was selected, and a radiance value of the same was measured using Living Image 4.3.1 Software (Caliper Life Science). The mice were euthanized 28 days after the transplantation, tumor weights and the number of mesenteric lymph nodes (lymph nodes of 1 mm or larger in diameter) were determined, and histological analysis was carried out. […]

In the case of “ASO-1316: 15-mer AmNA/phosphorothioate ASO targeting ARL4C, base sequence SEQ ID NO: 1 gcatacctcaggtaa; Table 1 SEQ ID NO 13 (antisense GCATACCTCAGGTAA; AmNA and phosphorothioate modified, pattern not given here)”, the “knockdown efficiency (ARL4C mRNA amount)” value (ARL4C mRNA [1]) is reported as “high knockdown efficiencies”, the “ARL4C mRNA amount” value (ARL4C mRNA [2]) is reported as “reduced the ARL4C mRNA amount” and the “cancer metastasis to mesenteric lymph nodes” value (S2-CP8/Luc cells) is reported as “could suppress cancer metastasis to mesenteric lymph nodes”.

— patent US12071624B2, “Antisense oligonucleotide targeting ARL4C molecule, and nucleic acid drug using antisense oligonucleotide” (OSAKA UNIVERSITY, priority 2018, dated 2024)
